Reference: patent US20200061173A1, “IMMUNOGENIC COMPOSITION COMPRISING SURVIVIN PEPTIDES” (Vaxeal Research SAS, priority 2016, published 2020)

Key:
[1] = test system: Survivin peptides-specific T cell responses; test: T cell immunogenicity in mouse strains, ex vivo IFN-γ ELISpot on total splenocytes; details: splenocytes re-stimulated with the individual SVX-1 peptides
Procedure: T cell immunogenicity of the mixture and individual Survivin derived polypeptides (S1, S2 and S3) was evaluated in different mouse strains (C57BL/6 (H2^b); BALB/c (H2^d) and CBA (H2^k)) and in the pre-clinical mouse model HLA-DRB1*0101, HLA-A*0201 (with α3 from D^b), H-2^/ transgenic mice (Tg HLA-A2/DR1). The objective of this study was to select the optimal genetic background to further investigate the immunogenicity and therapeutic efficacy of the SVX-1 vaccine composes of an equimolar mixture of these 3 Survivin LSPs.
Six (6) to ten (10) weeks old female C57BL/6, BALB/c, and CBA mice were obtained from Charles River (Saint-Germain-Nuelles, France).
The transgenic HLA-A2/DR1 mice, previously described (Pajot et al. 2004), were bred and maintained under specific pathogen-free conditions in an animal facility. […] One week after the last immunization (D21), spleen cells of immunized mice were harvested, and the induction of Survivin peptides-specific T cell responses was detected ex vivo using IFN-γ ELISpot assay on the total splenocytes (2×10^5 cells) re-stimulated overnight with the mix of peptides or the individual peptides. […]

PBMC T cells = test: Spontaneous T-cell responses against SVX-1 peptides in blood, IFN-γ ELISpot; type: cell-based, human; details: among the 6 positive patients
Procedure: Peripheral blood from 7 lung cancer patients was used to monitor the presence of SVX-1 peptides specific T cells. The cancer patients were recruited at the Hôpital Europeen Georges Pompidou (Paris, France). This study was conducted in accordance with French laws and after approval by the local ethics committee. Blood cells were also collected from 3 anonymous healthy donors at the Etablissement Français du Sang (EFS, Rungis, France) as buffy-coat preparations after informed consent and following EFS guidelines. The blood from the healthy donors served as negative controls.
PBMC were isolated by density centrifugation on Ficoll-Hyperpaque gradients (Sigma-Aldrich). PBMC were cultured for 6 days at 2×10^6 cells/ml in 2 ml per well with complete RPMI medium supplemented with 10% FCS. In each well, a pool of SVX-1 peptides was added at a concentration of 10 μg/ml. On day 2 after the beginning of the culture, IL-2 (Chiron) was added at 20 IU/ml in standard conditions. After 6 days of culture, ELISpot assays were performed using PHA-activated cells pulsed with the pool of SVX-1 peptides or the individual peptides (S1, S2 or S3) as antigen presenting cells (APCs). […]
Spots were counted using an automated stereomicro-scope (Zeiss). The number of specific T cells expressed as spot-forming cells/10^5 cells was calculated after subtracting negative control values (background). […]

For “HRISTFKNWPFLEGCACT (alpha-isoform survivin S1 positions 17-34) [18 amino acid peptide consisting of wild type Survivin amino acids 17-34]”, the “T cell responses against individual peptides in CBA mice” value [1] was “mainly directed against the S1 peptides” and the “Spontaneous T cell responses against individual peptides in lung cancer patients” value (PBMC T cells) was “detected”.
